Results on 22 molecules are retold here after patent US9701689B2, “Substituted pyridines and pyridazines as CCR10 receptor inhibitors” (KYOWA HAKKO KIRIN CO., LTD., priority 2012, dated 2017).

For this experiment, the target named is T1, human CCR10 (Homo sapiens, UniProt P46092).
T1 construct: expressed in transfected cells; host or cells: KJMGER8 cells (Namalwa cell-derived line), beta-estradiol-induced; hCCR10G16 cells
T1 sequence (P46092 1-362): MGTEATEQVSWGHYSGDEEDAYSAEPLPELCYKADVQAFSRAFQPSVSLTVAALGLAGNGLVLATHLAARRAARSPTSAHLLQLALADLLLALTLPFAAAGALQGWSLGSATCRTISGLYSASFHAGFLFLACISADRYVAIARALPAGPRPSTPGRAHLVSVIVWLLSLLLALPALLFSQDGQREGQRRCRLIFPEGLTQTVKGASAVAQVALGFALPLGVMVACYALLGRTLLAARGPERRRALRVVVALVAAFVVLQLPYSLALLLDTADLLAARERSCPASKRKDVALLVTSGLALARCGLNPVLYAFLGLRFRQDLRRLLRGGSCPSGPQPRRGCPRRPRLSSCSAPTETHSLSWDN
As to the kind of experiment: CCR10 antagonistic effect: calcium assay of human CCR10 (CTACK-induced increase of intracellular calcium in hCCR10G16 cells). The class given is cell-based. As to conditions: at a concentration of not more than 1000 nmol/L; human CCR10-expressing hCCR10G16 cells, 300 nmol/L CTACK added; read-out: inhibition of increase in the calcium ion concentration. The method, boiled down: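 Inhibition of CTACK-evoked calcium flux (max minus min Fluo-3 fluorescence over ~5 min, FDSS) was calculated against control in β-estradiol-induced human CCR10/Gα16 KJMGER8 cells, after 30 min compound preincubation at 37 °C; CTACK added from a 300 nmol/L solution.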
Background: Calcium assays in cells follow changes in intracellular calcium, usually with a dye or a luminescent sensor.

Take `Cc1cccc(Nc2c(C(=O)N3CCN(c4ccc(F)cc4)C(=O)C3)cnc(S(N)(=O)=O)c2Cl)c1` [Compound 209, 3-chloro-5-[4-(4-fluorophenyl)-3-oxopiperazine-1-carbonyl]-4-(m-tolylamino)pyridine-2-sulfonamide]: the inhibition at up to 1 µM is ≥ 50%.

As to `Cc1cccc(Sc2c(C(=O)N3CCC(c4ccc(F)cc4)CC3)cnc(S(N)(=O)=O)c2Cl)c1` [Compound 210, 3-chloro-5-[4-(4-fluorophenyl)piperidine-1-carbonyl]-4-(m-tolylthio)pyridine-2-sulfonamide], the inhibition at up to 1 µM was ≥ 50%. As for `NS(=O)(=O)c1ncc(C(=O)N2CCC(c3ccc(F)cc3)CC2)c(NC(=O)c2ccccc2)c1Cl` [Compound 211, N-{3-chloro-5-[4-(4-fluorophenyl)piperidine-1-carbonyl]-2-sulfamoylpyridin-4-yl}benzamide], the figure is ≥ 50%. For `NS(=O)(=O)c1ncc(C(=O)N2CCC(c3ccc(F)cc3)CC2)c(Cc2ccccc2)c1Cl` [Compound 212, 4-benzyl-3-chloro-5-[4-(4-fluorophenyl)piperidine-1-carbonyl]pyridine-2-sulfonamide], the inhibition at up to 1 µM is ≥ 50%. In the case of `Cc1cccc(Nc2c(C(=O)N3CC4CN(c5ccc(F)cc5)CC4C3)cnc(S(N)(=O)=O)c2Cl)c1` (stereo not shown) [Compound 213, 3-chloro-5-[5-(4-fluorophenyl)octahydropyrrolo[3,4-c]pyrrole-2-carbonyl]-4-(m-tolylamino)pyridine-2-sulfonamide], the inhibition at up to 1 µM was ≥ 50%. Turning to `Cc1c(S(N)(=O)=O)ncc(C(=O)N2CCC(c3ccc(F)cc3)CC2)c1NCC1CCOCC1` [Compound 214, 5-[4-(4-fluorophenyl)piperidine-1-carbonyl]-3-methyl-4-[(tetrahydro-2H-pyran-4-yl)methylamino]pyridine-2-sulfonamide], the inhibition at up to 1 µM is ≥ 50%. The figure for `Cc1c(S(=O)(=O)Nc2ccon2)ncc(C(=O)N2CCC(c3ccc(F)cc3)CC2)c1NC1CCCCC1` [Compound 215, 4-(cyclohexylamino)-5-[4-(4-fluorophenyl)piperidine-1-carbonyl]-N-(isoxazol-3-yl)-3-methylpyridine-2-sulfonamide] is ≥ 50%. For the molecule `CC(=O)C1(c2ccc(F)cc2)CCN(C(=O)c2cnc(S(N)(=O)=O)c(Cl)c2Nc2cccc(C)c2)CC1` [Compound 216, 5-[4-acetyl-4-(4-fluorophenyl)piperidine-1-carbonyl]-3-chloro-4-(m-tolylamino)pyridine-2-sulfonamide], the inhibition at up to 1 µM is ≥ 50%. Regarding `NS(=O)(=O)c1ncc(C(=O)N2CCC(c3ccc(F)cc3)CC2)c(N[C@H]2C[C@@H]3CC[C@H]2O3)c1Cl` [Compound 217, 4-((1R,2S,4S)-7-oxabicyclo[2.2.1]heptan-2-ylamino)-3-chloro-5-[4-(4-fluorophenyl)piperidine-1-carbonyl]pyridine-2-sulfonamide], the inhibition at up to 1 µM is ≥ 50%. As for `Cc1cccc(Nc2c(C(=O)N3CCC4(CC3)CNc3ccccc3C4)cnc(S(N)(=O)=O)c2Cl)c1` [Compound 218, 3-chloro-5-[2′,4′-dihydro-1′H-spiro[piperidine-4,3′-quinoline]-1-ylcarbonyl]-4-(m-tolylamino)pyridine-2-sulfonamide], the figure is ≥ 50%. Take `Cc1ncc(Nc2c(C(=O)N3CCC(c4ccc(F)cc4)CC3)cnc(S(N)(=O)=O)c2Cl)c(C)n1` [Compound 219, 3-chloro-4-(2,4-dimethylpyrimidin-5-ylamino)-5-[4-(4-fluorophenyl)piperidine-1-carbonyl]pyridine-2-sulfonamide]: the inhibition at up to 1 µM is ≥ 50%.

With `Cc1c(S(N)(=O)=O)ncc(C(=O)N2CCC(c3ccc(F)cc3)CC2)c1NC(C)c1ccccc1` (stereo not shown) [Compound 220, 5-[4-(4-fluorophenyl)piperidine-1-carbonyl]-3-methyl-4-(1-phenylethylamino)pyridine-2-sulfonamide], the inhibition at up to 1 µM was ≥ 50%. For `Cc1c(S(N)(=O)=O)ncc(C(=O)N2CCC(c3ccc(F)cc3)CC2)c1NCc1cccnc1` [Compound 221, 5-[4-(4-fluorophenyl)piperidine-1-carbonyl]-3-methyl-4-(pyridin-3-ylmethylamino)pyridine-2-sulfonamide], the inhibition at up to 1 µM was ≥ 50%. For the molecule `Cc1c(S(=O)(=O)Nc2ccon2)ncc(C(=O)N2CCC(c3ccc(F)cc3)CC2)c1NCCc1ccccc1` [Compound 222, 5-[4-(4-fluorophenyl)piperidine-1-carbonyl]-N-(isoxazol-3-yl)-3-methyl-4-(phenethylamino)pyridine-2-sulfonamide], the inhibition at up to 1 µM was ≥ 50%. With `Cc1c(S(=O)(=O)Nc2ccon2)ncc(C(=O)N2CCC(c3ccc(F)cc3)CC2)c1NCc1ccccn1` [Compound 223, 5-[4-(4-fluorophenyl)piperidine-1-carbonyl]-N-(isoxazol-3-yl)-3-methyl-4-(pyridin-2-ylmethylamino)pyridine-2-sulfonamide], the inhibition at up to 1 µM is ≥ 50%. Turning to `Cc1c(S(=O)(=O)Nc2ccon2)ncc(C(=O)N2CCC(c3ccc(F)cc3)CC2)c1NCCN1CCOCC1` [Compound 224, 5-[4-(4-fluorophenyl)piperidine-1-carbonyl]-N-(isoxazol-3-yl)-3-methyl-4-(2-morpholinoethylamino)pyridine-2-sulfonamide], the inhibition at up to 1 µM is ≥ 50%.

As to `O=C(c1cnc(S(=O)(=O)Nc2ccon2)c(F)c1NCc1ccccc1)N1CCC(c2ccc(F)cc2)CC1` [Compound 225, 4-(benzylamino)-3-fluoro-5-[4-(4-fluorophenyl)piperidine-1-carbonyl]-N-(isoxazol-3-yl)pyridine-2-sulfonamide], the inhibition at up to 1 µM is ≥ 50%. As for `CCNC(=O)NS(=O)(=O)c1ncc(C(=O)N2CCC(c3ccc(F)cc3)CC2)c(Nc2ccccc2C)c1C` [Compound 226, N-(ethylcarbamoyl)-5-[4-(4-fluorophenyl)piperidine-1-carbonyl]-3-methyl-4-(o-tolylamino)pyridine-2-sulfonamide], the figure is ≥ 50%. Consider `Cc1c(S(=O)(=O)Nc2ccon2)ncc(C(=O)N2CCC(c3ccc(F)cc3)CC2)c1NCC1CCC1` [Compound 227, 4-(cyclobutylmethylamino)-5-[4-(4-fluorophenyl)piperidine-1-carbonyl]-N-(isoxazol-3-yl)-3-methylpyridine-2-sulfonamide], for which the inhibition at up to 1 µM was ≥ 50%.

Regarding `Cc1c(S(N)(=O)=O)ncc(C(=O)N2CCC(c3ccc(F)cc3)CC2)c1NCc1cccc(C#N)c1` [Compound 228, 4-(3-cyanobenzylamino)-5-[4-(4-fluorophenyl)piperidine-1-carbonyl]-3-methylpyridine-2-sulfonamide], the inhibition at up to 1 µM was ≥ 50%.

As for `Cc1cc(F)ccc1Nc1cc(S(N)(=O)=O)nnc1C(=O)N1CCC(c2ccc(F)cc2)CC1` [Compound 229, 5-(4-fluoro-2-methylphenylamino)-6-[4-(4-fluorophenyl)piperidine-1-carbonyl]pyridazine-3-sulfonamide], the inhibition at up to 1 µM is ≥ 50%.

For `NS(=O)(=O)c1ncc(C(=O)N2CCC(c3ccc(F)cc3)CC2)c(NC2(c3ccccc3)CC2)c1Cl` [Compound 230, 3-chloro-5-[4-(4-fluorophenyl)piperidine-1-carbonyl]-4-(1-phenylcyclopropylamino)pyridine-2-sulfonamide], the inhibition at up to 1 µM is ≥ 50%.
